Assay results: ChEMBL document CHEMBL6153157, “Novel 3-Aminothieno[2,3-b]pyridine-2-carboxamides with Activity against Mycobacterium tuberculosis” (ACS Med Chem Lett, 2025)

Tests used:
[1] = Cytotoxicity against human HepG2 cells assessed as cell growth inhibition incubated for 3 days by CellTiter-Glo reagent-based luminescence assay; format: toxicity
[2] = system: Mycobacterium tuberculosis; assay: Antibacterial activity against wild type Mycobacterium tuberculosis H37Rv-LP DREAM8 strain expressing codon-optimized DsRed assessed growth inhibition incubated for 5 days by fluorescence spectrophotometric assay; format: functional; details: H37Rv-LP DREAM8, 120 h, time 5 day
[3] = system: Mycobacterium tuberculosis; assay: Antibacterial activity against Mycobacterium tuberculosis LepB-UE strain under expressing signal peptidase LepB assessed growth inhibition incubated for 5 days by fluorescence spectrophotometric assay; format: functional; details: 120 h, time 5 day
[4] = Selectivity index, ratio of IC50 for cytotoxicity against human HepG2 cells to IC90 for antibacterial activity against wild type Mycobacterium tuberculosis H37Rv-LP DREAM8 strain expressing codon-optimized DsRed; format: toxicity, cell-based

Compound | IC50 at 3 days [1] [µM] | IC90 [2] [µM] | IC90 [3] [µM] | selectivity ratio [4]
COc1ccc(-c2cc(C(F)(F)F)c3c(N)c(C(=O)NC(C)c4ccccc4)sc3n2)cn1 (stereo not given) | 19 | 1.2 | 0.41 | 
COc1ccc(-c2cc(C(F)(F)F)c3c(N)c(C(=O)NCc4ccccc4)sc3n2)cc1 | 88 | > 100 |  | < 1
COc1ccc(-c2cc(C(F)(F)F)c3c(N)c(C(=O)N4CCCC4(C)C)sc3n2)cc1 | 78 | > 100 |  | < 1
CCC(NC(=O)c1sc2nc(-c3ccc(OC)cc3)cc(C(F)(F)F)c2c1N)c1ccccc1 (stereo not given) | > 100 | 0.74 |  | > 135
COc1ccc(-c2cc(C(F)(F)F)c3c(N)c(C(=O)NC45CC6CC(CC(O)(C6)C4)C5)sc3n2)cc1 | 19 | 7.5 |  | 3
